CC50, EC50 and selectivity ratio data for twelve compounds are collected here from ChEMBL document CHEMBL5634111, “Design, synthesis, and anti-respiratory syncytial virus potential of novel 3-(1,2,3-triazol-1-yl)furoxazine-fused benzimidazole derivatives” (Eur J Med Chem, 2023).

Data set [1] can be described thus: Cytotoxicity against human HepG2 cells measured after 24 hrs by MTT assay. The data set is classed as toxicity, cell-based.
Data set [2] has as its system Respiratory syncytial virus. In words: Antiviral activity against RSV infected in human HepG2 cells preincubated for 24 hrs followed by viral infection for 2 hrs and measured after 60 hrs by MTT assay. The data set is classed as functional, organism-based.
Data set [3] is described as follows: Selectivity index, ratio of CC50 for human HepG2 cells to EC50 for RSV infected in human HepG2 cells. The data set is classed as toxicity, cell-based. The conditions noted are these: read-out: Ratio CC50/EC50.

`Brc1cc2nc3n(c2cc1Br)[C@H]1OC[C@H](n2cc(-c4ccccc4)nn2)[C@H]1OC3`: the CC50 (commonly the concentration giving 50% cytotoxicity) at 24 h in data set [1] was found to be 63.6 µM.
`CCCCCCc1cn([C@H]2CO[C@H]3[C@@H]2OCc2nc4cc(Br)c(Br)cc4n23)nn1` gave a CC50 at 24 h in data set [1] of 52.3 µM.
Same read-out and setting: under `OCc1cn([C@H]2CO[C@H]3[C@@H]2OCc2nc4cc(Br)c(Br)cc4n23)nn1` stands 104 µM; under `Cc1c(Br)cc2nc3n(c2c1Br)[C@H]1OC[C@H](n2cc(-c4ccccc4)nn2)[C@H]1OC3`, 53.3 µM.
Consider `Brc1cc2nc3n(c2cc1Br)[C@H]1OC[C@H](n2cc(C4CC4)nn2)[C@H]1OC3`, for which a half-maximal response in data set [2] (EC50) required 6.26 µM. This compound had a CC50 at 24 h in data set [1] of 40 µM. In addition, the selectivity ratio in data set [3] came out at 6.39.
As for `CCOC(=O)c1cn([C@H]2CO[C@H]3[C@@H]2OCc2nc4cc(Br)c(Br)cc4n23)nn1`, the CC50 at 24 h in data set [1] amounted to 26.9 µM.
On the same count and under the same terms, then `OCCCc1cn([C@H]2CO[C@H]3[C@@H]2OCc2nc4cc(Br)c(Br)cc4n23)nn1`, with 150 µM.
With `Brc1cc2nc3n(c2cc1Br)[C@H]1OC[C@H](n2cc(COc4ccccc4)nn2)[C@H]1OC3`, the EC50 (in general, the concentration at which the effect is half-maximal) in data set [2] was 21.9 µM. The compound also gave a CC50 at 24 h in data set [1] of 121 µM. Further, the selectivity ratio in data set [3] is 5.73.
Take `OCCc1cn([C@H]2CO[C@H]3[C@@H]2OCc2nc4cc(Br)c(Br)cc4n23)nn1`: the CC50 at 24 h in data set [1] came out at 70.1 µM.
For `Cc1cn([C@H]2CO[C@H]3[C@@H]2OCc2nc4cc(Br)c(C)c(Br)c4n23)nn1`, a half-maximal effect in data set [2] (EC50) was put at 14.2 µM. The compound further returned a half-maximal cytotoxic concentration (CC50) at 24 h in data set [1] of 94.6 µM. The selectivity ratio in data set [3] was determined as 6.68.
In turn, `CCCCCc1cn([C@H]2CO[C@H]3[C@@H]2OCc2nc4cc(Br)c(Br)cc4n23)nn1` registered a CC50 at 24 h in data set [1] of 237 µM.
`NC(=O)c1ncn([C@@H]2O[C@H](CO)[C@@H](O)[C@H]2O)n1` [RIBAVIRIN] gave an EC50 in data set [2] of 8.41 µM. Besides, the CC50 at 24 h in data set [1] was determined as 246 µM. Besides, the selectivity ratio in data set [3] worked out at 29.2.
